Laboratory results reported in PubChem BioAssay AID248 (DTP/NCI, 2004).
Where “and” joins values, the source holds several entries; their conditions need not be identical. Equal values may be shown once. Toxic doses and inconclusive results are not listed. No stated cut-off is given here; in the data, active means T/C of 150% or more; inactive means T/C below 125%.

Test system: L1210 leukemia ip in BDF1 mice, survival T/C
Test: NCI In Vivo Anticancer Drug Screen. Data for tumor model L1210 Leukemia (intraperitoneal) in B6D2F1 (BDF1) mice
Conditions: endpoint: mean survival time, higher = longer survival
Procedure, shortened: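 Read-out is survival time, reported as the treated-group measurement over the vehicle-control measurement.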

[1] = dose: 100.0 mg/kg/injection, schedule: Q04DX002 (ip), vehicle: saline with Tween-80
[2] = dose: 200.0 mg/kg/injection, schedule: Q04DX002 (ip), vehicle: saline with Tween-80
[3] = dose: 400.0 mg/kg/injection, schedule: Q04DX002 (ip), vehicle: saline with Tween-80
[4] = dose: 100.0 mg/kg/injection, schedule: Q01DX009 (ip), vehicle: saline with Tween-80
[5] = dose: 100.0 mg/kg/injection, schedule: Q04DX003 (ip), vehicle: saline with Tween-80
[6] = dose: 200.0 mg/kg/injection, schedule: Q01DX009 (ip), vehicle: saline with Tween-80
[7] = dose: 200.0 mg/kg/injection, schedule: Q04DX003 (ip), vehicle: saline with Tween-80
[8] = dose: 400.0 mg/kg/injection, schedule: Q01DX009 (ip), vehicle: saline with Tween-80
[9] = dose: 400.0 mg/kg/injection, schedule: Q04DX003 (ip), vehicle: saline with Tween-80
[10] = dose: 100.0 mg/kg/injection, schedule: Q01DX001 (ip), vehicle: other
[11] = dose: 200.0 mg/kg/injection, schedule: Q01DX001 (ip), vehicle: other
[12] = dose: 400.0 mg/kg/injection, schedule: Q01DX001 (ip), vehicle: other
[13] = dose: 100.0 mg/kg/injection, schedule: Q01DX009 (ip), vehicle: Klucel (hydroxypropylcellulose) (HPC)
[14] = dose: 200.0 mg/kg/injection, schedule: Q01DX009 (ip), vehicle: Klucel (hydroxypropylcellulose) (HPC)
[15] = dose: 50.0 mg/kg/injection, schedule: Q01DX001 (ip), vehicle: saline
[16] = dose: 100.0 mg/kg/injection, schedule: Q01DX001 (ip), vehicle: saline
[17] = dose: 100.0 mg/kg/injection, schedule: Q04DX003 (ip), vehicle: Klucel (hydroxypropylcellulose) (HPC)
[18] = dose: 200.0 mg/kg/injection, schedule: Q04DX003 (ip), vehicle: Klucel (hydroxypropylcellulose) (HPC)
[19] = dose: 25.0 mg/kg/injection, schedule: Q01DX009 (ip), vehicle: saline
[20] = dose: 50.0 mg/kg/injection, schedule: Q01DX009 (ip), vehicle: saline
[21] = dose: 50.0 mg/kg/injection, schedule: Q04DX003 (ip), vehicle: saline
[22] = dose: 100.0 mg/kg/injection, schedule: Q04DX003 (ip), vehicle: saline
[23] = dose: 100.0 mg/kg/injection, schedule: Q01DX009 (ip), vehicle: saline
[24] = dose: 200.0 mg/kg/injection, schedule: Q01DX001 (ip), vehicle: saline
[25] = dose: 200.0 mg/kg/injection, schedule: Q01DX009 (ip), vehicle: saline
[26] = dose: 400.0 mg/kg/injection, schedule: Q01DX001 (ip), vehicle: saline
[27] = dose: 400.0 mg/kg/injection, schedule: Q01DX009 (ip), vehicle: saline
[28] = dose: 400.0 mg/kg/injection, schedule: Q01DX009 (ip), vehicle: Klucel (hydroxypropylcellulose) (HPC)

Measured: T/C

CC1(C)OC2C3COC(O3)C(O)C2O1 (configuration not stated)
inactive: [1] 99 % of control | [2] 99 % of control | [3] 96 % of control

CCCC(=O)Nc1cc(C)ccc1N=Nc1ccc(C)cc1
inactive: dose: 100.0 mg/kg/injection, schedule: Q01DX001 (ip), vehicle: saline with Tween-80 95 % of control | [4] 97 % of control and 105 % of control | [1] 90 % of control and 92 % of control | [5] 100 % of control | dose: 200.0 mg/kg/injection, schedule: Q01DX001 (ip), vehicle: saline with Tween-80 103 % of control | [6] 88 % of control and 90 % of control | [2] 97 % of control and 92 % of control | [7] 97 % of control | dose: 400.0 mg/kg/injection, schedule: Q01DX001 (ip), vehicle: saline with Tween-80 98 % of control | [8] 97 % of control | [3] 97 % of control | [9] 97 % of control

O=C(c1ccccc1)C1CCC(Cl)CC1 (configuration not stated)
inactive: [10] 96 % of control | [11] 101 % of control | [12] 102 % of control

Cc1ccc(NC(=O)OC/C=C/c2ccccc2)c(Cl)c1
inactive: [13] 99 % of control | [14] 97 % of control

C(=C1/CCCc2ccccc21)/c1ccccn1
inactive: [10] 98 % of control | [11] 103 % of control | [12] 90 % of control

CC(=O)OC1CCCC1OC(=O)c1ccc([N+](=O)[O-])cc1 (configuration not stated)
inactive: dose: 100.0 mg/kg/injection, schedule: Q04DX003 (ip), vehicle: other 106 % of control | dose: 200.0 mg/kg/injection, schedule: Q04DX003 (ip), vehicle: other 96 % of control | dose: 400.0 mg/kg/injection, schedule: Q04DX003 (ip), vehicle: other 95 % of control

Cc1c(/C=N/NC(=O)CCCC(=O)N/N=C/c2c(C)n(C)n(-c3ccccc3)c2=O)c(=O)n(-c2ccccc2)n1C
inactive: [15] 102 % of control | [16] 93 % of control

COC(=O)C(Br)CCBr (configuration not stated)
inactive: [4] 94 % of control | [5] 94 % of control | [6] 95 % of control | [7] 101 % of control | [8] 100 % of control | [9] 105 % of control

CC(=O)Nc1ccc(NC(=O)NCCCl)cc1
inactive: dose: 50.0 mg/kg/injection, schedule: Q01DX009 (ip), vehicle: Klucel (hydroxypropylcellulose) (HPC) 96 % of control | [13] 99 % of control | [17] 103 % of control | [14] 89 % of control | [18] 100 % of control

CC(CC1c2ccccc2CCc2ccccc21)CN(C)C (configuration not stated)
inactive: dose: 6.25 mg/kg/injection, schedule: Q01DX009 (ip), vehicle: saline 95 % of control | dose: 12.5 mg/kg/injection, schedule: Q01DX009 (ip), vehicle: saline 104 % of control | [19] 95 % of control | dose: 25.0 mg/kg/injection, schedule: Q04DX003 (ip), vehicle: saline 102 % of control | [20] 101 % of control | [21] 107 % of control | [22] 120 % of control

O=C1/C(=C/c2ccc(Cl)cc2)CCc2ccccc21
inactive: [16] 101 % of control | [23] 97 % of control | [24] 101 % of control | [25] 96 % of control | [26] 97 % of control | [27] 86 % of control

C=CCC1CC2(C)C(CCC3C2CCC2(C)C(C(C)CCCC(C)C)CCC32)CC1O (configuration not stated)
inactive: dose: 100.0 mg/kg/injection, schedule: Q01DX009 (ip), vehicle: gum acacia 87 % of control | dose: 200.0 mg/kg/injection, schedule: Q01DX009 (ip), vehicle: gum acacia 87 % of control | dose: 400.0 mg/kg/injection, schedule: Q01DX009 (ip), vehicle: gum acacia 104 % of control

CN(C)c1ccc2c(c1)Cc1cc(N=C3C=CC(=O)O3)ccc1-2
inactive: [19] 100 % of control | dose: 25.0 mg/kg/injection, schedule: Q04DX003 (ip), vehicle: acetone 95 % of control | [20] 97 % of control | dose: 50.0 mg/kg/injection, schedule: Q04DX003 (ip), vehicle: acetone 92 % of control | [16] 89 % of control | [23] 94 % of control | dose: 100.0 mg/kg/injection, schedule: Q04DX003 (ip), vehicle: acetone 88 % of control

CCN(C)c1cc2c3c(c1)CCCN3CCC2
inactive: dose: 5.0 mg/kg/injection, schedule: Q01DX009 (ip), vehicle: saline 103 % of control

Cc1ccc(C(=O)/C(Cl)=N/O)cc1
inactive: dose: 50.0 mg/kg/injection, schedule: Q01DX001 (ip), vehicle: other 96 % of control | [10] 104 % of control

NNC(=S)Nc1cccc(Cl)c1
inactive: dose: 75.0 mg/kg/injection, schedule: Q01DX001 (ip), vehicle: saline 103 % of control | dose: 150.0 mg/kg/injection, schedule: Q01DX001 (ip), vehicle: saline 102 % of control

COC1CC(OC2OC(CO)C(O)C(O)C2O)/C(=C\C#N)C(O)C1OC (configuration not stated)
inactive: [20] 106 % of control | [21] 103 % of control | [23] 103 % of control | [22] 100 % of control | [25] 101 % of control | dose: 200.0 mg/kg/injection, schedule: Q04DX003 (ip), vehicle: saline 101 % of control

O=C(Nc1ccc(Br)cc1)Oc1ccccc1C(=O)Nc1ccccc1
inactive: [13] 98 % of control | [14] 98 % of control | [28] 88 % of control

COc1cc2c(cc1OC)C(C)=[N+](C)CC2
inactive: dose: 12.5 mg/kg/injection, schedule: Q04DX003 (ip), vehicle: Klucel (hydroxypropylcellulose) (HPC) 101 % of control | dose: 25.0 mg/kg/injection, schedule: Q04DX003 (ip), vehicle: Klucel (hydroxypropylcellulose) (HPC) 103 % of control | dose: 50.0 mg/kg/injection, schedule: Q04DX003 (ip), vehicle: Klucel (hydroxypropylcellulose) (HPC) 106 % of control

CCSc1nc(C=O)c(Cc2ccc(Br)cc2)c(=O)[nH]1
inactive: [5] 106 % of control | [7] 103 % of control | [9] 106 % of control

CC1(c2cccc(N)c2)OCCO1
inactive: [4] 100 % of control | [5] 94 % of control | [6] 102 % of control | [7] 100 % of control | [8] 91 % of control | [9] 97 % of control

COc1cc(N=CN(C)C)cc(OC)c1OC
inactive: [13] 101 % of control | [17] 97 % of control | [14] 103 % of control | [18] 97 % of control | [28] 103 % of control | dose: 400.0 mg/kg/injection, schedule: Q04DX003 (ip), vehicle: Klucel (hydroxypropylcellulose) (HPC) 93 % of control

O=C1OC(OC(=O)c2ccccc2)C(Br)=C1Br (configuration not stated)
inactive: [17] 98 % of control | [18] 104 % of control

O=C1C=C(NNc2ccccc2)CCC1
inactive: dose: 75.0 mg/kg/injection, schedule: Q01DX001 (ip), vehicle: steriod suspending solution 92 % of control | dose: 150.0 mg/kg/injection, schedule: Q01DX001 (ip), vehicle: steriod suspending solution 95 % of control | dose: 300.0 mg/kg/injection, schedule: Q01DX001 (ip), vehicle: steriod suspending solution 92 % of control

CCCCCCCCCCSCCO
inactive: [16] 102 % of control | [24] 102 % of control | [26] 97 % of control

C/C(=C/Cl)OC(C)C
inactive: dose: 50.0 mg/kg/injection, schedule: Q01DX009 (ip), vehicle: acetone 99 % of control | dose: 100.0 mg/kg/injection, schedule: Q01DX009 (ip), vehicle: acetone 99 % of control | dose: 200.0 mg/kg/injection, schedule: Q01DX009 (ip), vehicle: acetone 101 % of control

COc1ccc(-c2oc3cc(OC)ccc3c(=O)c2O)cc1
inactive: [15] 106 % of control | [16] 98 % of control | [24] 104 % of control | [26] 98 % of control

COc1cc(NC2CCCCC2O)c2nc(-c3ccc(Cl)cc3)ccc2c1 (configuration not stated)
inactive: [23] 98 % of control | [25] 90 % of control | [27] 86 % of control
